Counter-ions that a name gives are not always drawn. Like-named read-outs stand apart in the source and are kept apart here.
Assays:
[1] = Picotamide salt stability, degradation determined by HPLC
Procedure: If a spontaneous crystallization occurs after the salt formation, the solid is isolated by filtration.
Column: Phenomenex Hypersil C18-BDS, 4.6×150 mm, 5 μm, flow 1 ml/min, 25° C., detection at 254 nm. Ammonium acetate buffer 10 mM, pH 9, containing 15% methanol. After 17 min, the percentage of methanol is increased to 80%. The sample is dissolved in methanol/water 1:1.
Salts were formed in THF.

[2] = Picotamide stability under acidic conditions (HPLC content); assay type: physicochemical; conditions: hydrochloric acid 1 M, three days
Procedure: The sample is dissolved in methanol/water 1:1.
Picotamide is dissolved in hydrochloric acid 1 M and stored at room temperature and 50° C. for three days.

[3] = man, after oral administration; cited from earlier work

Row | Degradation [1] | Compound | Degradation ([1]; salts formed in THF, HPLC) | further results
1 | 35% | Br [hydrobromide] | – | –
2 | 0.0% | COc1ccc(C(=O)NCc2cccnc2)cc1C(=O)NCc1cccnc1 [hydrochloride (anhydrous)] | – | –
3 | 0.6% | COc1ccc(C(=O)NCc2cccnc2)cc1C(=O)NCc1cccnc1 [hydrochloride] | – | –
4 | 0.1% | O=S(=O)(O)O [sulfate] | – | –

Continued, compound first:

Row | Compound | Degradation [1] | Degradation ([1]; salts formed in THF, HPLC) | further results
5 | CC(=O)O [Acetate] | 0.6% | – | –
6 | COc1ccc(C(=O)NCc2cccnc2)cc1C(=O)NCc1cccnc1 [Picotamide, N,N′-bis-(3-picolyl)-4-methoxyisophthalamide] | – | – | picotamide content ([2]; 50° C.): 98.1%; picotamide content ([2]; room temperature): 99.2%
7 | COc1ccc(C(=O)NCc2cccnc2)cc1C(=O)NCc1cccnc1 [anhydrous picotamide] | – | – | time needed to reach the maximum inhibitory effect [3]: 8 h
8 | citrate | – | 0.2% | –
9 | fumarate | – | 6.7% | –
10 | maleate | – | 11.5% | –
11 | oxalate | – | 0.4% | –
12 | tartrate [reference compound] | – | 0.1% | –

Source: US20080293772A1, “SALTS OF PICOTAMIDE” (priority 2007, published 2008)
